Measurements published in patent publication US20140135310A1, “SULPHONAMIDE DERIVATIVES OF ALICYCLIC AMINES FOR THE TREATMENT OF CENTRAL NERVOUS SYSTEM DISEASES” (Adamed Sp. z o.o., priority 2011, published 2014).

How the values were obtained:
[1] = target: T1, 5-HT1A receptor (rat hippocampus) (Rattus norvegicus, UniProt P19327); experiment: Radioligand binding assay, serotoninergic 5-HT1A receptors; conditions: binding assay result in %, Table 5a;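 further: test compound at 1 µM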
T1 construct: hippocampus; from tissue; host or cells: rat hippocampus
T1 sequence (P19327 1-422): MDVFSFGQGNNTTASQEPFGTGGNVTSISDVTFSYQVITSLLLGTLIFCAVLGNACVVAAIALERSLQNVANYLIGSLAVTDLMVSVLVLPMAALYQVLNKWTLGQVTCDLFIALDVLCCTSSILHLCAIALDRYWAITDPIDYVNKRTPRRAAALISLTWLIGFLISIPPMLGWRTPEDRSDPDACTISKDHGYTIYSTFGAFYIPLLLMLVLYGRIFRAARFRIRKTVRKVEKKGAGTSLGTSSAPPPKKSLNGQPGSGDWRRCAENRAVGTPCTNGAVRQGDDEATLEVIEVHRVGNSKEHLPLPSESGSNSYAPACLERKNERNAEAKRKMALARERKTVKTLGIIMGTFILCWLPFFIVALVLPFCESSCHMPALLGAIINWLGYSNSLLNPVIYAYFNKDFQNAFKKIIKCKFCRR

[2] = target: T2, receptors D4.4 (Homo sapiens, UniProt P21917); experiment: Radioligand binding assay, dopaminergic D4 (D4.4) receptors; conditions: test compound 1×10^−6 M
T2 sequence (P21917 1-419): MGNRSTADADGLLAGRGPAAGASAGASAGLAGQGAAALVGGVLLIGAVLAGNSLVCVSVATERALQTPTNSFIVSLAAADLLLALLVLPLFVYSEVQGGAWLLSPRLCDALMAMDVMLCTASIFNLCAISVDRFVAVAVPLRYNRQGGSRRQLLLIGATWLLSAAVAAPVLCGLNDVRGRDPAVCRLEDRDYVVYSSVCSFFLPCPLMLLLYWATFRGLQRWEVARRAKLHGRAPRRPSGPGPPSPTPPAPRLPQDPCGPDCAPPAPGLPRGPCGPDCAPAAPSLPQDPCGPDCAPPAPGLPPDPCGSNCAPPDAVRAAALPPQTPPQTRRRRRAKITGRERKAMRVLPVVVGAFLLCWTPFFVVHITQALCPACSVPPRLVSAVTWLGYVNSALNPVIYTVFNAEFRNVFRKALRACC
Source text: (§1) The specific ligand binding to the receptors is defined as the difference between the total binding and the non-specific binding determined in the presence of the excess of unlabelled ligand.
(§2) The results are expressed as a percent of control specific binding ((measured specific binding/control specific binding)×100) and as a percent inhibition of control specific binding (100−((measured specific binding/control specific binding)×100)) obtained in the presence of the test compounds. The specific ligand binding to the receptors is defined as the difference between the total binding and the nonspecific binding determined in the presence of an excess of unlabelled ligand. Scintillation counting was the method of detection of ligand binding. The IC50 values (concentration causing a half-maximal inhibition of control specific binding) were determined by non-linear regression analysis of the competition curves generated with mean replicate values using Hill equation curve fitting (Y=D+[(A−D)/(1+(C/C50)nH)], where Y=specific binding, D=minimum specific binding, A=maximum specific binding, C=compound concentration, C50=IC50, and nH=slope factor). This analysis was performed using a software developed at Cerep (Hill software) and validated by comparison with data generated by the commercial software SigmaPlot® 4.0 for Windows® (© 1997 by SPSS Inc.). The inhibition constants (Ki) were calculated using the Cheng Prusoff equation (Ki=IC50/(1+(L/KD)), where L=concentration of radioligand in the assay, and KD=affinity of the radioligand for the receptor). A scatchard plot was used to determine the Kd.
Experimental conditions for tests are given in Table 1, the results of tests for representative compounds are given in Tables 2a and 2b (receptors D2 and D3) and in Table 3 (receptors D4).

[3] = target: T3, H1 histaminergic receptors (Homo sapiens, UniProt P35367); experiment: Radioligand binding assay, histaminergic H1 receptors; conditions: human recombinant (HEK-293 cells), [3H]pyrilamine 1 nM
T3 construct: expressed in transfected cells; host or cells: HEK-293 cells
T3 sequence (P35367 whole entry): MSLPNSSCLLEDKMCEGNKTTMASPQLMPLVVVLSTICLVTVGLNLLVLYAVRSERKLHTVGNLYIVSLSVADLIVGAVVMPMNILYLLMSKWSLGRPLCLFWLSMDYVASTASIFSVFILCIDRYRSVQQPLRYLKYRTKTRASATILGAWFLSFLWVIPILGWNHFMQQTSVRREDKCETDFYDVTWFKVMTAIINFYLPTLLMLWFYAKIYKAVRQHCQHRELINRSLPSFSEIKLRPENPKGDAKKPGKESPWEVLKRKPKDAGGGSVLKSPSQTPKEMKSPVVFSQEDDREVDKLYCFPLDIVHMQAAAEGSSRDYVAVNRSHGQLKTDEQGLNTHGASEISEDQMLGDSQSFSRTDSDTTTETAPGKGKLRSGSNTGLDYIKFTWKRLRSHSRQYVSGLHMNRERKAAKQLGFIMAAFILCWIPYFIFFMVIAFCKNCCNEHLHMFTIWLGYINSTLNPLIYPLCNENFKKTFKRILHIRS
Source text: as §1, §2
Experimental conditions for tests are given in Table 14, and results of tests for representative compounds are presented in Table 15.

[4] = target: T4, M3 muscarinic receptors (Homo sapiens, UniProt P20309); experiment: Radioligand binding assay, muscarinic M3 receptors; conditions: test compound 1×10^−6 M
T4 construct: expressed in transfected cells; host or cells: CHO cells
T4 sequence (P20309 whole entry): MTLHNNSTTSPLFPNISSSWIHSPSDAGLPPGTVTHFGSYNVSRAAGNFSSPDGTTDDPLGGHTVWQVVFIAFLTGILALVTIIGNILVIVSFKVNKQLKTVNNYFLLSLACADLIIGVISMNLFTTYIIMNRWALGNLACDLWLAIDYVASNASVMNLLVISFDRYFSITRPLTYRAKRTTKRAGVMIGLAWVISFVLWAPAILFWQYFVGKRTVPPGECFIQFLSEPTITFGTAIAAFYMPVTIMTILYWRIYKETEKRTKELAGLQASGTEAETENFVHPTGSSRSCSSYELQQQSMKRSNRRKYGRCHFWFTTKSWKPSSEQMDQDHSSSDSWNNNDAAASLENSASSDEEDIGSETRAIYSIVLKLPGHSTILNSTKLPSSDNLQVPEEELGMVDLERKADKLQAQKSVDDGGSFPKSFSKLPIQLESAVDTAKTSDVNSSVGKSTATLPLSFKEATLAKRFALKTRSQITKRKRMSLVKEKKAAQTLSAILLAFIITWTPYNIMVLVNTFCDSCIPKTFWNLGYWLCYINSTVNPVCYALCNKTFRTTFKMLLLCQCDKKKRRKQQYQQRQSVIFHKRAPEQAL
Source text: as §1, §2
Experimental conditions for tests are given in Table 10, and results of tests for representative compounds are given in Table 11.

[5] = target: T5, 5-HT7 receptor (Homo sapiens, UniProt P34969); experiment: Radioligand binding assay, serotoninergic 5-HT7 receptors; conditions: binding assay result in %, Table 5a;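 further: test compound at 1 µM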
T5 construct: purchased PerkinElmer
T5 sequence (P34969 whole entry): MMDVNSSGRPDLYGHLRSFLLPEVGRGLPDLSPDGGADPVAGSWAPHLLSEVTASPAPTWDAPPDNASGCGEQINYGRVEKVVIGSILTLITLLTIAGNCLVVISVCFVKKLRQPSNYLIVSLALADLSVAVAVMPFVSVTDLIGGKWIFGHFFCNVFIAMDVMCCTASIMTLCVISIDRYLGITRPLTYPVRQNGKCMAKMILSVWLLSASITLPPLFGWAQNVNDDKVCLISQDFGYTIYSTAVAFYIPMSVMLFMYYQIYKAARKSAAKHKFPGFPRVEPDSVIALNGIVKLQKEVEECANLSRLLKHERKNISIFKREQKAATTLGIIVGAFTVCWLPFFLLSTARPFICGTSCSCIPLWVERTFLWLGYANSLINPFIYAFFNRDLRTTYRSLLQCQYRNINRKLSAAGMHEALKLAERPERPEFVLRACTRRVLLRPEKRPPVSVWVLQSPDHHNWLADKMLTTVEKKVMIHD
In short: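 Competition binding at human 5-HT7 receptors with a radioligand, detected by scintillation counting; non-specific binding was defined with excess unlabelled ligand. IC50 came from Hill-equation fits of competition curves, and Ki from Cheng–Prusoff using radioligand concentration and Scatchard-derived KD.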

[6] = target: T6, 5-HT2A receptor (Homo sapiens, UniProt P28223); experiment: Radioligand binding assay, serotoninergic 5-HT2A receptors; conditions: for Ki: read-out: Inhibition constants Ki, 5-HT2A
T6 construct: purchased PerkinElmer
T6 sequence (P28223 whole entry): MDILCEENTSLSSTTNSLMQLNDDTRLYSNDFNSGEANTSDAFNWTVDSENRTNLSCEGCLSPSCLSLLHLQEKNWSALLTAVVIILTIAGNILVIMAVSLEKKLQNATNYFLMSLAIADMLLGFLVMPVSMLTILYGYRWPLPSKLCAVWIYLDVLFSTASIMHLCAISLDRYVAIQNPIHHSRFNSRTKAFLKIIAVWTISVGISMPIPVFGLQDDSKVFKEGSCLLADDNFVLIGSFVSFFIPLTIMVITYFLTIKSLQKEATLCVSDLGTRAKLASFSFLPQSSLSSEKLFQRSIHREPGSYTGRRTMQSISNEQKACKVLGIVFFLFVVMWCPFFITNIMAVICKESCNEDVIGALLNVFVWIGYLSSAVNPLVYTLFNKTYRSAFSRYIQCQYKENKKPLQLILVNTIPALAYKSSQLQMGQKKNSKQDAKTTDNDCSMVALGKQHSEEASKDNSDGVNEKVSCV
In short: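 Radioligand competition binding with scintillation counting; nonspecific binding defined by excess unlabelled ligand. Data as percent inhibition of control specific binding. IC50 by Hill-equation fit of competition curves; Ki by Cheng-Prusoff, with radioligand Kd from Scatchard plot.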

[7] = system: α1 adrenergic receptors (rat cerebral cortex); experiment: Radioligand binding assay, adrenergic α1 receptors; conditions: test compound 1×10^−6 M
In short: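 Values derive from radioligand displacement, with non-specific binding defined by excess cold ligand and detection by scintillation. Hill-fit IC50s were converted to Ki via Cheng-Prusoff using Scatchard-derived Kd; percent inhibition of control specific binding also reported.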

[8] = binding assay result in %, Table 5a

Compound | 5-HT1A [%] [1] [%] | inhibition at 1 µM [2] [%] | inhibition at 1 µM [3] [%] | inhibition at 1 µM [4] [%] | 5-HT7 [%] [5] [%] | 5-HT2A [%] [6, 8] [%] | Ki [6] [nM] | α1 [%] [7] [%] | inhibition at 1 µM [1] [%] | inhibition at 1 µM [5] [%] | inhibition at 1 µM [6, 8] [%]
O=S(=O)(NCC1CN(CCCc2noc3cc(F)ccc23)C1)c1cc2ccccc2s1 [Compound 127, N-[[1-[3-(6-Fluoro-1,2-benzoxazol-3-yl)propyl]azetidin-3-yl]methyl]benzo-thiophene-2-sulphonamide] | 71 | 55 | 54 | 1 | 96 | 99 | 4.2 | 93 | – | – | –
COc1cccc(S(=O)(=O)NCC2CN(CCCc3noc4cc(F)ccc34)C2)c1 [Compound 143, N-[[1-[3-(6-Fluoro-1,2-benzoxazol-3-yl)propyl]azetidin-3-yl]methyl]-3-methoxy-benzenesulphonamide] | – | 80 | 36 | -4 | – | – | – | 97 | 44 | 87 | 94
O=S(=O)(N[C@@H]1CCN(CCCc2noc3cc(F)ccc23)C1)c1cc2ccccc2s1 [Compound 196, N-[(3R)-1-[3-(6-Fluoro-1,2-benzoxazol-3-yl)propyl]pyrrolidin-3-yl]benzo-thiophene-2-sulphonamide] | – | 78 | 84 | 11 | – | – | 0.4 | 95 | 54 | 101 | 100
O=S(=O)(N[C@H]1CCN(CCCc2noc3cc(F)ccc23)C1)c1cc2ccccc2s1 [Compound 197, N-[(3S)-1-[3-(6-Fluoro-1,2-benzoxazol-3-yl)propyl]pyrrolidin-3-yl]benzo-thiophene-2-sulphonamide] | – | 81 | 76 | 26 | – | – | 0.7 | 93 | 56 | 101 | 99
O=S(=O)(N[C@@H]1CCN(CCCc2noc3cc(F)ccc23)C1)c1ccc2cc(Cl)ccc2c1 [Compound 200, 6-Chloro-N-[(3R)-1-[3-(6-fluoro-1,2-benzoxazol-3-yl)propyl]pyrrolidin-3-yl]naphthalene-2-sulphonamide] | – | 49 | – | 3 | – | – | 2.3 | 85 | 50 | 93 | 99
O=S(=O)(N[C@H]1CCN(CCCc2noc3cc(F)ccc23)C1)c1ccc2cc(Cl)ccc2c1 [Compound 201, 6-Chloro-N-[(3S)-1-[3-(6-fluoro-1,2-benzoxazol-3-yl)propyl]pyrrolidin-3-yl]naphthalene-2-sulphonamide] | – | 50 | 64 | 9 | – | – | 7 | 82 | 32 | 95 | 98
Cc1c(S(=O)(=O)N[C@@H]2CCN(CCCc3noc4cc(F)ccc34)C2)sc2ccc(F)cc12 [Compound 202, 5-Fluoro-N-[(3R)-1-[3-(6-fluoro-1,2-benzoxazol-3-yl)propyl]pyrrolidin-3-yl]-3-methyl-benzothiophene-2-sulphonamide] | – | 76 | – | 9 | – | – | 1.4 | 98 | 65 | 98 | 99
Cc1c(S(=O)(=O)N[C@H]2CCN(CCCc3noc4cc(F)ccc34)C2)sc2ccc(F)cc12 [Compound 203, 5-Fluoro-N-[(3S)-1-[3-(6-fluoro-1,2-benzoxazol-3-yl)propyl]pyrrolidin-3-yl]-3-methyl-benzothiophene-2-sulphonamide] | – | 78 | 67 | 12 | – | – | 0.7 | 91 | 60 | 99 | 99
O=S(=O)(N[C@@H]1CCN(CCCc2noc3cc(F)ccc23)C1)c1ccc2ccccc2c1 [Compound 206, N-[(3R)-1-[3-(6-Fluoro-1,2-benzoxazol-3-yl)propyl]pyrrolidin-3-yl]naphthalene-2-sulphonamide] | – | 87 | – | 9 | – | – | 0.7 | 93 | 68 | 100 | 100
O=S(=O)(N[C@H]1CCN(CCCc2noc3cc(F)ccc23)C1)c1ccc2ccccc2c1 [Compound 207, N-[(3S)-1-[3-(6-Fluoro-1,2-benzoxazol-3-yl)propyl]pyrrolidin-3-yl]-naphthalene-2-sulphonamide] | – | 85 | 65 | 12 | – | – | 0.5 | 95 | 58 | 99 | 100
Cn1ccc2cc(S(=O)(=O)NC3CCN(CCCc4noc5cc(F)ccc45)C3)ccc21 (centres unmarked) [Compound 218, N-[1-[3-(6-Fluoro-1,2-benzoxazol-3-yl)propyl]pyrrolidin-3-yl]-1-methyl-indole-5-sulphonamide] | – | 86 | 77 | 0 | – | – | – | – | 91 | 98 | 100
Cc1ccc2sc(S(=O)(=O)N[C@@H]3CCN(CCCc4noc5cc(F)ccc45)C3)cc2c1 [Compound 228, N-[(3R)-1-[3-(6-Fluoro-1,2-benzoxazol-3-yl)propyl]pyrrolidin-3-yl]-5-methyl-benzothiophene-2-sulphonamide] | – | 68 | – | 12 | – | – | 1 | 88 | 27 | 92 | –
Cc1ccc2sc(S(=O)(=O)N[C@H]3CCN(CCCc4noc5cc(F)ccc45)C3)cc2c1 [Compound 229, N-[(3S)-1-[3-(6-Fluoro-1,2-benzoxazol-3-yl)propyl]pyrrolidin-3-yl]-5-methylbenzothiophene-2-sulphonamide] | – | 86 | 75 | 15 | – | – | 0.6 | 89 | 46 | 99 | –
